Assay results from ChEMBL document CHEMBL1201862, “PubChem BioAssay data set” (2004).
Several values for one entry are separate records, joined by “and”; a condition that tells them apart may be missing. Equal values may be shown once. Where a name gives a salt, the structure may show the parent alone.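 In this assay, cells in 96-well plates receive the compound at five concentrations for 48 hours. Endpoints are linearly interpolated between the surrounding concentrations. GI50 = concentration required for 50% inhibition of growth.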 Activity calls are given as the source filed them. Rule as the data show it: active = GI50 up to about 1.1 µM and inactive = higher.

Tests used:
Experiment in all cases: DTP human tumour cell line panel, 48 h
[1] = system: M14
[2] = system: HT-29
[3] = system: HCT-116
[4] = system: MDA-MB-231
[5] = system: NCI-H226
[6] = system: OVCAR-4
[7] = system: SNB-75
[8] = system: NCI/ADR-RES
[9] = system: EKVX
[10] = system: OVCAR-5
[11] = system: DU-145
[12] = system: NCI-H460
[13] = system: Hs-578T
[14] = system: MDA-MB-435
[15] = system: 786-0
[16] = system: HCT-15
[17] = system: CAKI-1
[18] = system: SK-OV-3
[19] = system: TK-10
[20] = system: HOP-92

| Structure (SMILES) | GI50 [1] | GI50 [2] | GI50 [3] | GI50 [4] | GI50 [5] | GI50 [6] | GI50 [7] | GI50 [8] | GI50 [9] | GI50 [10] | GI50 [11] | GI50 [12] | GI50 [13] | GI50 [14] | GI50 [15] | GI50 [16] [µM] | GI50 [17] | GI50 [18] | GI50 [19] | GI50 [20] |
| --- | --- | --- | --- | --- | --- | --- | --- | --- | --- | --- | --- | --- | --- | --- | --- | --- | --- | --- | --- | --- |
| O=C(/C=C/c1ccsc1)c1ccc(Cl)cc1 | 80.7 µM (inactive) | 36.5 µM (inactive) | 23.7 µM (inactive) | 63.7 µM (inactive) | 52 µM (inactive) | > 100 µM (inactive) | > 100 µM (inactive) | 78.3 µM (inactive) | 97.7 µM (inactive) | 56.1 µM (inactive) | > 100 µM (inactive) | > 100 µM (inactive) | 57.8 µM (inactive) | 41.8 µM (inactive) | 89.5 µM (inactive) | 39.7 | > 100 µM (inactive) | > 100 µM (inactive) | > 100 µM (inactive) | – |
| COC(=O)c1c(C#N)c(N)nc2c1CCC2 | > 100 µM (inactive) | > 100 µM (inactive) | > 100 µM (inactive) | > 100 µM (inactive) | > 100 µM (inactive) | 93.3 µM (inactive) | – | > 100 µM (inactive) | > 100 µM (inactive) | > 100 µM (inactive) | > 100 µM (inactive) | > 100 µM (inactive) | 70 µM (inactive) | > 100 µM (inactive) | > 100 µM (inactive) | > 100 | > 100 µM (inactive) | > 100 µM (inactive) | > 100 µM (inactive) | > 100 µM (inactive) |
| N#Cc1c(N2CCC(O)C2)c2ccccc2n2c1nc1ccccc12 (centres undefined) | > 100 µM (inactive) | > 100 µM (inactive) | > 100 µM (inactive) | 19.4 µM (inactive) | – | 20.5 µM (inactive) | 25.1 µM (inactive) | 65.3 µM (inactive) | > 100 µM (inactive) | > 100 µM (inactive) | > 100 µM (inactive) | > 100 µM (inactive) | 29.2 µM (inactive) | > 100 µM (inactive) | 17.1 µM (inactive) | > 100 | 37.9 µM (inactive) | – | 51.1 µM (inactive) | 41.1 µM (inactive) |
| CC(=O)O[C@H]1CC[C@@H](OC(C)=O)[C@H]2[C@H](O)[C@H](O)[C@@H]1n1c(=O)n(-c3ccccc3)c(=O)n12 | > 100 µM (inactive) | > 100 µM (inactive) | > 100 µM (inactive) | > 100 µM (inactive) | > 100 µM (inactive) | > 100 µM (inactive) | – | > 100 µM (inactive) | > 100 µM (inactive) | > 100 µM (inactive) | > 100 µM (inactive) | – | > 100 µM (inactive) | > 100 µM (inactive) | > 100 µM (inactive) | > 100 | > 100 µM (inactive) | – | > 100 µM (inactive) | > 100 µM (inactive) |
| CCCNC(=O)CCC(C)[C@H]1CCC2C3C(C[C@H](OC(C)=O)[C@@]21C)[C@@]1(C)CCC2(C[C@H]1C[C@H]3OC(C)=O)OOC1(CCCCC1)OO2 (some centres undefined) | 5.02 µM (inactive) | 3.96 µM (inactive) | 2.93 µM (inactive) | 1.94 µM (inactive) | 3.84 µM (inactive) | 1.74 µM (inactive) | 1.9 µM (inactive) | 2.39 µM (inactive) | 1.58 µM (inactive) | 2.67 µM (inactive) | 1.85 µM (inactive) | 1.67 µM (inactive) | 7.33 µM (inactive) | 2.23 µM (inactive) | 2.31 µM (inactive) | 3.68 | 0.367 µM (active) | 24.9 µM (inactive) | 1.95 µM (inactive) | – |
| NCCS [CYSTEAMINE HYDROCHLORIDE] | > 100 µM (inactive) | > 100 µM (inactive) | > 100 µM (inactive) | > 100 µM (inactive) | > 100 µM (inactive) | > 100 µM (inactive) | > 100 µM (inactive) | > 100 µM (inactive) | > 100 µM (inactive) | > 100 µM (inactive) | > 100 µM (inactive) | > 100 µM (inactive) | > 100 µM (inactive) | > 100 µM (inactive) | > 100 µM (inactive) | > 100 | > 100 µM (inactive) | – | > 100 µM (inactive) | – |
| CCOC(=O)[C@@]12NN=N[C@@H]1[C@H]1CO[C@H](c3ccccc3)N1C2=O | 6.18 µM (inactive) | 13.5 µM (inactive) | 15 µM (inactive) | 12.2 µM (inactive) | – | 16.5 µM (inactive) | – | 22.1 µM (inactive) | 13.9 µM (inactive) | 14.2 µM (inactive) | 13.8 µM (inactive) | 4.44 µM (inactive) | 4.6 µM (inactive) | 11.1 µM (inactive) | 5.97 µM (inactive) | 6.62 | 11 µM (inactive) | 18.2 µM (inactive) | 16.8 µM (inactive) | 1.64 µM (inactive) |
| CCNCC(O)COc1ccc2c(c1)[n+]([O-])nc(N)[n+]2[O-] (centres undefined) | 40.7 µM (inactive) | 68.9 µM (inactive) | 50.2 µM (inactive) | > 100 µM (inactive) | 59.2 µM (inactive) | 37.2 µM (inactive) | 29.4 µM (inactive) | > 100 µM (inactive) | > 100 µM (inactive) | > 100 µM (inactive) | 71.3 µM (inactive) | > 10 µM (inactive) | 54.6 µM (inactive) | > 100 µM (inactive) | 51.6 µM (inactive) | 63.7 | 26.9 µM (inactive) | 10.6 µM (inactive) | > 100 µM (inactive) | – |
| Cc1cc(C)c(N)c(CO)c1 | > 100 µM (inactive) | – | 35.6 µM (inactive) and 19.3 µM (inactive) | > 100 µM (inactive) | – | 78.9 µM (inactive) and 57.4 µM (inactive) | > 100 µM (inactive) | > 100 µM (inactive) | > 100 µM (inactive) and 81.1 µM (inactive) | – | > 100 µM (inactive) | 46.7 µM (inactive) and 34 µM (inactive) | > 100 µM (inactive) | > 100 µM (inactive) | > 100 µM (inactive) | > 100 | 4.25 µM (inactive) and 2.87 µM (inactive) | > 100 µM (inactive) | – | > 59.2 µM (inactive) |
| C1COCCOP2(N3CC3)=NP(N3CC3)(=NP(N3CC3)(N3CC3)=N2)OCCOCCO1 (centres undefined) | > 100 µM (inactive) | > 100 µM (inactive) | > 100 µM (inactive) | > 100 µM (inactive) | > 100 µM (inactive) | > 100 µM (inactive) | > 100 µM (inactive) | > 100 µM (inactive) | > 100 µM (inactive) | > 100 µM (inactive) | 37.4 µM (inactive) | – | > 100 µM (inactive) | > 100 µM (inactive) | > 100 µM (inactive) | > 100 | > 100 µM (inactive) | > 100 µM (inactive) | > 100 µM (inactive) | – |
| CC(C)CCC[C@@H](C)C1CCC2[C@@H]3CCC4C[C@@H](NS(C)(=O)=O)CC[C@]4(C)C3CC[C@@]21C (some centres undefined) | > 100 µM (inactive) | > 100 µM (inactive) | > 100 µM (inactive) | > 100 µM (inactive) | > 100 µM (inactive) | > 100 µM (inactive) | > 100 µM (inactive) | > 100 µM (inactive) | > 100 µM (inactive) | – | > 100 µM (inactive) | > 100 µM (inactive) | > 100 µM (inactive) | > 100 µM (inactive) | > 100 µM (inactive) | > 100 | > 100 µM (inactive) | > 100 µM (inactive) | > 100 µM (inactive) | – |
